Several values for one entry are separate records, joined by “and”; a condition that tells them apart may be missing. Equal entries are not always repeated.
Key:
[1] = Stability in hepatomicrosome with NADPH (LC-MS/MS); format: in vitro ADME, human; settings: for % Remaining: human hepatomicrosome 0.5 mg/ml, NADPH 2 mM, 37° C., Sample 1, Sample 2
Description: The compounds, hepatomicrosome and reduced coenzyme NADPH were mixed together. Besides, a final concentration of the hepatomicrosome was 0.5 mg/ml, and human, male and mixed types of the hepatomicrosome were purchased. A final concentration of the NADPH was 2 mM. Next, the preceding mixtures were incubated in buffer (100 mM KH2PO4—K2HPO4) at 37° C. for 0, 5, 15, 30, 45, and 60 minutes, respectively. At the appointed incubation time, the reaction was terminated by the addition of an internal standard solution. Finally, the samples were centrifuged and the supernatant was taken for detection by LC-MS/MS.
Through mass spectrometry analysis, a concentration of the compounds in each sample was expressed by a peak-area ratio (a ratio of the peak-area of the compound to a peak-area of the internal standard). Then, each remaining percentage of the compounds (% Remaining) at each appointed incubation time was calculated with a reference that 0 minute at each concentration of the compounds. In logarithm of the remaining percentage was fitted linearly with the appointed incubation times, and a half-life and an intrinsic clearance were calculated according to the following formulas.
The remaining percentage (% Remaining)=(a peak area ratio at a certain appointed time (PARappointed time)/a peak area ratio at 0 minute (PAR0-mm)×100 (PAR: peak area ratio)
The elimination rate constant (k)=a negative of a slope (-gradient)
In vitro clearance (CLint, in vitro) (ml/min/mg)=k/c (c: a concentration of hepatomicrosome in the incubation system)

[2] = Pharmacokinetics after single intravenous drip infusion, plasma LC-MS/MS; format: in vivo, Philippine macaques; settings: individual animals 101, 102, 103; for Plasma-drug concentration: AST-3424 intravenous drip infusion 0.58 mg/kg
Description: AST-3424 and AST-3424-D6 (i.e. the compound of formula I) were administered to Philippine macaques by intravenous drip infusion, and blood samples were collected at different appointed times. LC-MS/MS was used to determine concentrations of the test substances in plasma of the Philippine macaques after administration, and relevant pharmacokinetic parameters were calculated.
Preparation method: 0.447 ml of AST-3424 (0.2 mg/ml) and 0.481 ml of AST-3424-D6 (0.2 mg/ml) were added into 104.272 ml of the dissolvent, respectively, and mixed for 5 minutes to obtain colorless and clarified solutions with pH 7.0.
The four male Philippine macaques were purchased from Guangxi Xiongsen Primate Development Experiment Co., Ltd. All Philippine macaques were healthy with qualified medical examination and no abnormality. Three of animals were used for the experiment, and one of them was used to prepare blank plasma.
About 0.8 ml of blood samples were collected through femoral vein and anticoagulated with heparin sodium. Appointed times of blood collection were before administration, 0.17, 0.25, 0.5, 0.75, 1, 2, and 4 hours after administration.
The blood samples were placed on ice after collection. Next, plasma samples were separated by centrifugation, and centrifugation conditions were 3500 rpm for 10 minutes at 4° C. Then, the collected plasma samples were stored at −80° C. until analysis. The plasma samples were analyzed by LC-MS/MS by an analysis department of an experimental institution. Besides, Lower limit of quantifications (LLOQ) of AST-3424 and AST-3424-D6 detection were 1 ng/ml. The accuracy of analysis results of an accompanying standard curve and a quality control samples all met the relevant requirements of biological analysis (the accuracy of the quality control samples exceeding 66.7% was between 85˜115%) in a process of the sample detection.
According to average blood concentration data of each group at each appointed time, the pharmacokinetic parameters of the compounds were respectively computed by a pharmacokinetic computing software, a non-compartmental model. In addition, the pharmacokinetic parameters were AUC0-t, AUC0-∞, MRT0-∞, Cmax, Tmax, t1/2, etc. In the case of the concentrations of the samples whose concentration being lower than a lower limit of quantification, the following schemes were used to compute the pharmacokinetic parameters. The samples sampled before reaching Cmax shall be computed as zero value, while the samples sampled after reaching Cmax shall be computed as non-quantifiable (marked as “BLQ”).
After a single intravenous infusion of the compounds AST-3424 and AST-3424-D6 was administered to the Philippine macaques, the whole blood samples of the corresponding animals were collected at the appointed times. Next, the whole blood samples were processed and biologically analyzed to obtain concentrations of the compounds in the plasma at the different appointed times. Results of the assay were listed in Table 14 below, and corresponding means of the plasma-drug concentration-time curves are shown in FIG. 3.
According to the plasma-drug concentration data of each drug group, the pharmacokinetic parameters of each compound group were computed using the non-compartmental model of the pharmacokinetic computing software. The pharmacokinetic

[3] = AST-3424 0.58 mg/kg single intravenous infusion, plasma, 0.58 mg/kg

C[C@H](OP(=O)(N1CC1)N1CC1)c1ccc([N+](=O)[O-])c(Oc2cccc(C(=O)N(C)C)c2)c1 [AST-3424, (S)-1-(3-(3-N,N-Dimethylaminocarbonyl)phenoxy-4-nitrophenyl)-1-ethyl-N,N′-bis(ethylene) phosphoramidate]
Stability parameter k (elimination rate constant) ([1]; human hepatomicrosome): 0.0606 min⁻¹ | % Remaining ([1]; 0 minutes): 101.36% and 98.64% | % Remaining ([1]; 5 minutes): 77.67% and 80.00% | % Remaining ([1]; 15 minutes): 45.83% and 47.38% | % Remaining ([1]; 30 minutes): 17.86% and 16.93% | % Remaining ([1]; 45 minutes): 6.52% and 6.95% | % Remaining ([1]; 60 minutes): 2.64% and 2.68% | % Remaining, Average ([1]; human hepatomicrosome, 0 minutes): 100.00% | % Remaining, Average ([1]; human hepatomicrosome, 5 minutes): 78.83% | % Remaining, Average ([1]; human hepatomicrosome, 15 minutes): 46.60% | % Remaining, Average ([1]; human hepatomicrosome, 30 minutes): 17.40% | % Remaining, Average ([1]; human hepatomicrosome, 45 minutes): 6.74% | % Remaining, Average ([1]; human hepatomicrosome, 60 minutes): 2.66% | half-life ([1]; male, liver microsomes (hepatomicrosome), human hepatomicrosome, read-out: Stability parameter (t1/2)): 11.4 min | AUC(0−t) [2, 3]: 430.42 ng·h/mL and 474.63 ng·h/mL | AUC(0−∞) [2, 3]: 430.76 ng·h/mL and 475.04 ng·h/mL | Cl [2, 3]: 22.4412 mL/min/kg and 20.3492 mL/min/kg | Cmax [2, 3]: 677.40 ng/mL and 800.80 ng/mL | MRT(0−t) [2, 3]: 11.4 min | MRT(0−∞) [2, 3]: 11.4 min and 10.8 min | T1/2 [2, 3]: 10.8 min and 11.4 min | Tmax [2, 3]: 15 min and 30 min and 10.2 min | Vss [2, 3]: 0.26123 L/kg and 0.21373 L/kg | Vz [2, 3]: 0.35358 L/kg and 0.33343 L/kg | Plasma-drug concentration ([2]; 0.17 hr): 800.80 ng/mL and 685.96 ng/mL | Plasma-drug concentration ([2]; 0.25 hr): 729.91 ng/mL and 695.61 ng/mL | Plasma-drug concentration ([2]; 0.5 hr): 729.08 ng/mL and 679.80 ng/mL | Plasma-drug concentration ([2]; 0.75 hr): 157.68 ng/mL and 118.92 ng/mL | Plasma-drug concentration ([2]; 1 hr): 50.63 ng/mL and 31.86 ng/mL | Plasma-drug concentration ([2]; 2 hr, LLOQ 1 ng/ml): 1.51 ng/ ml and BLQ | Plasma-drug concentration ([2]; 4 hr, LLOQ 1 ng/ml): BLQ

From patent publication US20220395464A1, “ORALLY ADMINISTERED SOLID DOSAGE FORM DRUG” (ASCENTAWITS PHARMACEUTICALS, LTD., priority 2019, published 2022)
